From a melting point compilation (Tetko et al.; mined from patent text by program, amines drawn as free bases though some values may be those of a salt)

Compound	melting point [°C]
CC(=O)c1ccc(C(C)Oc2cccc(C(=O)Nc3ccc(C#N)cc3)c2)cc1 (centres undefined)	79 to 81
COc1cc2cc(COCC(=O)N3CCN(C)CC3)c(CO)c(-c3ccnc(-n4c(=O)ccc5ccccc54)c3)c2cc1OC	100 to 102
Cc1cc(-c2cc(C(F)F)n3ncc(C(=O)Nc4cccc(S(C)(=O)=O)c4)c3n2)ccc1C(F)(F)F	261
CC(C)c1nnc2c3ccc(Cl)cc3c(-c3ccccc3)nn12	214 to 216
CSCc1cn(C)c2cc(C(C)(C)C)ccc2c1=O	114 to 116
CCS(=O)CC(=O)c1ccc(-c2ccccc2F)cc1 (centres undefined)	91 to 93
CN(N)C(=O)NCC(F)F	81 to 84
NC(=O)NNC(c1ccccc1)c1ccccc1	182 to 184
CCCCOCCOc1ccc(-c2ccc3c(c2)C=C(C(=O)Nc2ccc(S(=O)Cc4nccn4CC(=O)O)cc2)CCN3CC(C)C)cc1 (centres undefined)	146 to 148
O=C(NCC12CC3CC(CC(C3)C1)C2)c1cc(-c2ccccc2C(=O)O)ccc1Cl	228 to 230
CCOC(=O)c1cn(-c2nncs2)c2nc(Cl)c(F)cc2c1=O	201 to 203
Cc1nc(-c2ccc(CCC3(O)CN4CCC3CC4)cc2)no1 (centres undefined)	165 to 167
COc1cc(NC(=O)C(C#N)=CNc2ccc(OC)c(OCCCCl)c2)c(Cl)cc1Cl	185 to 192
COC(=O)C#CC(=O)c1ccc(Cl)c(Cl)c1	58 to 59
COc1ccc([C@@H]2CCc3cc(OC)ccc3[C@@H]2CCCO)cc1 (relative stereo)	99
CCCCCC(O)c1cccc(OCc2cccc(C(N)=O)c2)c1 (centres undefined)	97 to 98
CS(=O)(=O)c1ccc(-c2cc(C(F)F)cn2-c2ccc(F)cc2)cc1	98 to 100
O[C@H]1CC[C@H](Oc2cccc3onc(OCC4CCN(CC5(O)CCOCC5)CC4)c23)C1 (relative stereo)	147
CS(=O)(=O)c1cccc(-c2ccccc2N)c1	114 to 115
CCC1CCc2c(sc3cc(OCc4ccccc4)ccc3c2=O)C1 (centres undefined)	94
O=C(NCCc1ccccc1F)c1c(Cl)ccc2nc(N3CCC(C(=O)O)CC3)ccc12	270 to 272
COC(=O)/C=C/c1occc(=O)c1OCC(=O)OC(C)(C)C	115 to 116
CCCCCCCCOc1ccc(C(=O)Oc2ccc(C3CCC(O)CC3)cc2)cc1 (centres undefined)	111 to 112
CCc1cc(CC)c(-c2c(OCS(C)(=O)=O)c(C)nn(C)c2=O)c(CC)c1	142 to 143
N#CSC1=Nc2ccccc2Sc2nccn21	111 to 113

Compound	melting point [°C]
CCCn1c(=O)c2c(NC)n[nH]c2n(Cc2cccnc2)c1=O	> 300
COc1ccc(C2CSc3ccccc3N(CCO)C2=O)cc1 (centres undefined)	133
CCn1c(=O)c2[nH]c(/C=C/c3cc(OC)c(OC)cc3[N+](=O)[O-])nc2n(CC)c1=O	284
COc1ccc(C(=O)Nc2ccccc2)cc1NC(=O)C(O)c1ccccc1 (centres undefined)	173 to 175
COc1cccc(NC(=O)Nc2nc3nc(NCCCN4CCN(C)CC4)ncc3cc2-c2c(Cl)cccc2Cl)c1	87.5 to 92.5
NCCC(O)(c1ccccc1)c1ccccc1	134 to 136
OC[C@H](O)CN1CCC[C@@H](Nc2nccc(-c3c(-c4cccc(O)c4)nc4sccn34)n2)C1	185 to 187
C=C(C)C(=O)OCc1c(Br)c(Br)c(COC(=O)C(=C)C)c(Br)c1Br	148 to 149
CC(C)n1nc(-c2c(-c3ccccc3)nn3ccc(OCCCN(C)C)cc23)ccc1=O	125 to 126
O=C(O)c1cccc2ncc(C3CCCCC3)cc12	> 280
CC(C)(C)C(=O)Nc1nc(Cl)c2c(n1)[nH]c1ccccc12	234
ClC(Cl)=NC(Cl)(Cl)C(Cl)(Cl)N=C(Cl)Cl	167
O=C(CCl)Nc1cccc(NC(=O)Nc2ccc(N(CCCl)CCCl)cc2)c1	232 to 233
COc1ccc(C2C=C3CN(C)CCC3C3C(=O)N(C)C(=O)C23)cc1 (centres undefined)	129 to 130
CC(C)(C)c1cc(C=O)c(O)c(Br)c1Cl	92 to 94
CCCCCCCCCCCCCCCCCCOc1cc(OCCOCCOCCOCC)cc(N(CC(=O)O)CC(=O)O)c1	76 to 78
Cc1cc(C2=NCCc3ccccc32)n(C)n1	112
N=C(N)c1ccc(-c2ccc(-n3cc(CCC(=O)O)c4ccccc43)nn2)cc1	288 to 292
CS(=O)(=O)c1ccc(-c2cnn(-c3cccc(F)c3)c(=O)c2-c2ccc(F)cc2)cc1	245 to 247
Cc1cc2cn[nH]c2c(C(=O)NC(C)C)c1NC(=O)c1cc(C(F)F)nn1-c1ncccc1Cl	250 to 253
COc1cc(CCCOc2c(CC(=O)O)cccc2OC)n(Cc2ccc(Cl)cc2Cl)n1	111 to 112
COC(=O)N1CCc2ccc(C(=O)CCC3CCN(C(=O)c4ccccc4)CC3)cc2CC1	120 to 123
Cn1cc(Br)cc(Nc2ccc(OC3CN(C(=O)OC(C)(C)C)C3)cn2)c1=O	120 to 121
O=C(CCCCCN1CCN(c2cccc(C(F)(F)F)c2)CC1)N1Cc2ccc(OCCN3CCCCC3)cc2C1	88
CC(O)C(C)(C)NC(=O)[C@@H]1CCCN1C(=O)[C@@H](O)[C@H](Cc1ccccc1)NC(=O)[C@H](CC(N)=O)NC(=O)OCc1ccccc1 (some centres undefined)	102 to 104

Compound	melting point [°C]
Cc1ccc2nc(-c3cccnc3N)n(-c3ccc(CNC(=O)c4ccccc4)cc3)c2n1	203 to 205
O=C(O)c1cc(Cl)c2cccnc2c1O	285 to 287
CCC(C)C(NC(=O)C(CSC(C)=O)C(F)(F)F)C(=O)O (centres undefined)	81 to 85
Cc1ccccc1Nc1nc(Cl)c2sccc2n1	87 to 89
CC1(C)CCC2CCCCC2C1NC=NC#N (centres undefined)	228
CCC1CC(=O)N(Cc2ccc(N)cc2)N=C1c1ccc(OC)c(OC)c1 (centres undefined)	49
COc1ccc(C(=O)C2CCN(C(C)=O)CC2)c(OC)c1	132 to 134
Oc1ccc2c(c1)OCC(c1cccc(C(F)(F)F)c1)C2c1ccc(OCCN2CCCCC2)cc1 (centres undefined)	118 to 119
Cc1oc(-c2ccccc2)nc1CCOc1ccc(C[C@H](NC(=O)C=Cc2ccc(F)cc2F)C(=O)O)cc1Br	221 to 223
COc1ccc(-c2nc(SC(F)(F)CF)[nH]c2-c2ccc(OC)cc2)cc1	144 to 145
CNC1=NS(=O)N=C1NCCSCc1ccc(CN(C)C)o1 (centres undefined)	86 to 92
CC1(C)C(=O)Oc2ccc3ccc(C(C#N)n4cncn4)cc3c21 (centres undefined)	196 to 198
Cc1cc(NC(=O)c2c(Cl)cccc2Cl)c2nccc(N3CCN(C)C3=O)c2c1C	213 to 216
CS(=O)(=O)OCCn1nccc1NC=O	101 to 104
O=C1Nc2ccccc2C1=Cc1cccs1	208 to 210
CCN(Cc1cc(Br)ccc1OCc1ccccc1)c1ncc(C(=O)NCc2nnn[nH]2)s1	232 to 236
Cc1cc(C(=O)C2CCc3nc[nH]c3C2)c2ccccn12 (centres undefined)	219 to 221
CCOC(=O)c1cnc2sc3c(n12)CCCC3	75 to 76
Cc1[nH]c(=O)ccc1-c1ccc(-n2ccnc2)cc1	310 to 314
CN1CCN(c2cc(Cl)cc3c2c(=O)n(Cc2cccc([N+](=O)[O-])c2)c(=O)n3Cc2ccccc2)CC1	200 to 205
c1ccc(CCC2CCN(Cc3c[nH]c4ncccc34)CC2)cc1	162 to 163
C=C1CC2C(CCC3(C)C2CCC3(O)C(C)=O)C2(C)CCC(=O)C=C12 (centres undefined)	218 to 220
O=C(O)CCC(=O)c1cccc([N+](=O)[O-])c1	162 to 164
Cn1cc(C2=C(c3cn4c5c(cccc35)CCC4CCO)C(=O)NC2=O)c2ccccc21 (centres undefined)	214 to 215
N=C(NCCCc1c[nH]cn1)NC1CCN(c2ccc(C3=NNC(=O)CC3CO)cc2[N+](=O)[O-])CC1 (centres undefined)	135 to 137

Compound	melting point [°C]
CCOC(=O)Oc1ccc(/C=C/C(=O)O)cc1	173 to 176
O=C1N(Cc2ccc(C(F)(F)F)nc2)c2ccccc2C12COc1cc3c(cc12)OCCO3 (centres undefined)	204 to 207
NNc1cc(-c2ccccc2)c2cc(Cl)ccc2n1	156 to 157
COc1ccc(-c2ccc3cc(C(=O)O)ccc3c2)cc1	267 to 269
Oc1c(F)cc(Cn2c(S)nc3ccccc32)cc1F	200
COc1cccc(C=C2c3ccccc3CCc3ccccc32)c1F	149
CCCC(=O)OC1CC(n2cc(CC)c(=O)[nH]c2=O)OC1CNC(=O)Cc1c(Cl)cccc1Cl (centres undefined)	130 to 132
Cc1cc(=O)on1C(=O)c1ccc(Cl)cc1Cl	137 to 139
COC(=O)c1ccc(Cn2ccn(C3CCc4ccccc4C3)c2=S)cc1 (centres undefined)	133 to 135
COc1cc(C(C)=O)ccc1OCCCN1CCC(c2n[nH]c3cc(F)ccc23)CC1	202 to 204
O=C1N(c2ccc(Cl)cc2F)C(=S)C2CCCCC12O (centres undefined)	156 to 157
CN(c1c(Cl)ccc2cc(C(=O)O)[nH]c12)S(=O)(=O)c1cccs1	286 to 288
CCOC(=O)C1=C(N)NC(N)=C(C(=O)OCC)C1c1ccccc1[N+](=O)[O-]	142
OCCSc1nc(-c2ccccc2)c2cc(Cl)ccc2n1	124
CN(C)c1ccc(C(=O)c2cccc(N)c2)cc1	110
CC(=O)C1CCC2C3CCC4=CC(=O)C=CC4(C)C3C=CC12C (centres undefined)	167 to 169
Cc1nc2ccccc2n(-c2ccc(Cl)cc2)c1=O	185 to 187
CC(=O)N1CCN=C1Nc1cc(C)nn1-c1ccc(Cl)c(Cl)c1	156 to 157
O=C1N(Cc2ccc3c(c2)OCCO3)c2ccccc2C12COc1cc3c(cc12)CCO3 (centres undefined)	173 to 175
COC(=O)C(C)CNc1nc2ccccc2o1 (centres undefined)	89 to 90
c1cc(OCCCCc2nnn[nH]2)cc(OCc2ccc3ccccc3n2)c1	120 to 130
O=C(Nc1ccc2oc(=O)[nH]c2c1)C(=O)N1CCC(Cc2ccc(F)cc2)CC1	226 to 231
CCOC(=O)C1CCc2ccc(NC(=O)OC(C)(C)C)c(C)c2O1 (centres undefined)	123 to 124
Oc1ccc2c(c1)C(n1cc[nH]c1=S)CCC2 (centres undefined)	195 to 196
